Assay results as given in patent US11992535B2, “Compounds and probes for imaging huntingtin protein” (CHDI Foundation, Inc., priority 2019, dated 2024).
Like-named read-outs stand apart in the source and are kept apart here.

Biological target: aggregated MBP-HTT(1-89)Q46-His(6×) (Exonl-Q46) protein (Q46 protein aggregates) (Homo sapiens (Human), UniProt P42858, INS38QQQQQQQQQQQQQQQQQQQQQQQQQ)
Experiment: Q46 Radioligand Binding Assay
Details: read-out: Q46_RBA EC50_
Method: Q46 Radioligand Binding Assay
For radioligand binding assays (RBA) MBP-HTT(1-89)Q46-His(6×) (“Exonl-Q46”) protein was generated based on a previous publication (Scherzinger et al. Cell, Vol. 90, 549-558, Aug. 8, 1997). For experiments 30 μM MBP-Exonl-Q46 was incubated with 150 μg/mL thrombin in assay buffer (150 mM NaCl, 50 mM Tris pH 8.0) and 2 mM CaCl2 for 16 hours at 37° C. Aggregated Exonl-Q46 was pelleted by centrifugation for 5 minutes at 13,000 rpm in a bench top centrifuge and re-dissolved in the same volume of assay buffer. Test compounds were prepared by titration in DMSO at 11 concentrations from 63 μM to 2 nM. For the RBA, Q46 protein aggregates and test compounds were pre-incubated in assay buffer for 20 minutes at room temperature, in 100 μL/well in a 96-well plate (pp, round bottom). Then, ligand was added in 50 μL/well and incubated for 60 minutes at 37° C. Final assay concentrations were 1 μM to 30 μM test compound, 1 μM Exonl-Q46 protein (equivalent monomer concentration) and 0.3 nM ligand [^3H3-methyl]-5-((5-methoxypyridin-2-yl)methoxy)-2-(pyrazin-2-yl)benzo[d]oxazole. Samples were transferred onto GF/B filter plates and washed 2× with 200 μL PBS using a Filtermate Harvester. After drying filter plates for 1 hour at 55° C., the back of the plates were sealed with foil and 30 μL/well scintillation fluid (Packard MicroScint 40) added, incubated for 15 minutes in the dark and counted in a MicroBeta reader. For analysis, replicate data from independent assay plates were normalized towards 0% and 100% inhibition using control wells of vehicle (0% inhibition) and 1 μM unlabelled [^3H3-methyl]-5-((5-methoxypyridin-2-yl)methoxy)-2-(pyrazin-2-yl)benzo[d]oxazole (100% inhibition). IC50 values were determined with a sigmoidal inhibition model with four variables (top, bottom, slope, IC50) in a global fit using the normalized replicate data.

[1] = displacement of 0.3 nM [3H3-methyl]-5-((5-methoxypyridin-2-yl)methoxy)-2-(pyrazin-2-yl)benzo[d]oxazole from 1 μM Exonl-Q46 aggregates, method calls the values IC50
[2] = same radioligand displacement on Exonl-Q46 aggregates

aggregated MBP-HTT(1-89)Q46-His(6×) (Exonl-Q46) protein (Q46 protein aggregates), sequence (P42858 other isoform, or with tags, fused parts or gaps, stated change not applied): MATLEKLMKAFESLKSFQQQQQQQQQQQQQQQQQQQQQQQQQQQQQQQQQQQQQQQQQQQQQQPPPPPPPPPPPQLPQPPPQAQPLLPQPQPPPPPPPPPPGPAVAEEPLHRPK

SMILES | EC50 [1] | EC50 [2]
COc1ccc(COc2ccc3c(c2)CN(C(=O)c2ccc(OC)nc2)CC3)nc1 [Example 1, 7-[(5-Methoxypyridin-2-yl)methoxy]-2-(6-methoxypyridine-3-carbonyl)-1,2,3,4-tetrahydroisoquinoline] | 1.24 nM | < 100 nM
COc1ccc(COc2ccc3c(c2)CN(C(=O)c2ccc(=O)n(C)n2)CC3)nc1 [Example 1.1] | 7.75 nM | < 100 nM
COc1ccc(COc2ccc3c(c2)CCN(C(=O)c2ccc(OC)nn2)C3)nc1 [Example 1.2] | 48.9 nM | < 100 nM
COc1ccc(COc2ccc3c(c2)CCN(C(=O)c2ccc(=O)n(C)n2)C3)nc1 [Example 1.3] | 46.4 nM | < 100 nM
COc1ccc(COc2ccc3c(c2)CCN(C(=O)c2ccc(OC)nc2)C3)nc1 [Example 1.4] | 8.48 nM | < 100 nM
COc1ccc(COc2ccc3c(c2)CN(C(=O)c2cncc(OC)c2)CC3)nc1 [Example 1.5] | 5.59 nM | < 100 nM
COc1ccc2c(c1)CN(C(=O)c1ccc(OC)nc1)CC2 [Example 1.6] | 333 nM | 100 to 500 nM
COc1ccc(COc2ccc3c(c2)CN(C(C)=O)CC3)nc1 [Example 1.7] | 96.5 nM | < 100 nM
COc1ccc(COc2ccc3c(c2)CN(C(=O)c2cnc(OC)cn2)CC3)nc1 [Example 1.8] | 1.2 nM | < 100 nM
COc1ccc(COc2ccc3c(c2)CN(C(=O)c2cccnc2)CC3)nc1 [Example 1.9] | 27.8 nM | < 100 nM
COc1ccc(COc2ccc3c(c2)CN(C(=O)c2ccc(OC)cn2)CC3)nc1 [Example 1.10] | 5 nM | < 100 nM
COc1ccc(COc2ccc3c(c2)CN(C(=O)c2ccc(OC)nn2)CC3)nc1 [Example 1.11] | 5.2 nM | < 100 nM
COc1ccc(COc2cccc3c2CCN(C(=O)c2ccc(OC)nc2)C3)nc1 [Example 1.12] | 34.1 nM | < 100 nM
COc1ccc(COc2cccc3c2CN(C(=O)c2ccc(OC)nc2)CC3)nc1 [Example 1.13] | 87.5 nM | < 100 nM
COc1ccc(COc2ccc3c(c2)CN(C(=O)c2ccc(N(C)C)nc2)CC3)nc1 [Example 1.14] | 1.8 nM | < 100 nM
COc1ccc(COc2ccc3c(c2)CN(C(=O)C2CCN(C)CC2)CC3)nc1 [Example 1.15] | 951 nM | > 500 nM
COc1ccc(COc2cnc3c(c2)CN(C(=O)c2ccc(OC)nc2)CC3)nc1 [Example 1.16] | 5.73 nM | < 100 nM
COc1ccc(COc2ccc3c(c2)CN(C(=O)c2ccc(C(F)(F)F)nc2)CC3)nc1 [Example 1.17] | 2.54 nM | < 100 nM
COc1ccc(COc2cnc3c(c2)CN(C(=O)c2cncc(OCCF)c2)CC3)nc1 [Example 1.18] | 65 nM | < 100 nM
COc1ccc(COc2ccc3c(c2)CN(C(=O)c2ccc(=O)n(CCCF)c2)CC3)nc1 [Example 1.19] | 5.45 nM | < 100 nM
COc1ccc(COc2ccc3c(c2)CN(C(=O)c2ccc(=O)n(CCF)n2)CC3)nc1 [Example 1.20] | 4.24 nM | < 100 nM
COc1ccc(COc2cnc3c(c2)CN(C(=O)c2ccnc(OC)c2)CC3)nc1 [Example 1.21] | 16.3 nM | < 100 nM
COc1ccc(COc2ccc3c(c2)CN(C(=O)c2cnc(OC)nc2)CC3)nc1 [Example 1.22] | 2.1 nM | < 100 nM
COc1ccc(COc2cnc3c(c2)CN(C(=O)c2ccnc(OCCF)c2)CC3)nc1 [Example 1.23] | 23 nM | < 100 nM
COc1ccc(COc2ccc3c(c2)CN(C(=O)c2cnn(C)c2)CC3)nc1 [Example 1.24] | 7.87 nM | < 100 nM

SMILES | EC50 [1] | EC50 [2]
COc1ccc(COc2ccc3c(c2)CN(C(=O)c2ccc(C)nc2)CC3)nc1 [Example 1.25] | 2.91 nM | < 100 nM
COc1ccc(C(=O)N2CCc3ccc(OCc4ccc(OC)cn4)cc3C2)cc1 [Example 1.26] | 1.78 nM | < 100 nM
COc1ccc(C(=O)N2CCc3ccc(OCc4cnn(C)c4)cc3C2)cn1 [Example 1.27] | 52.4 nM | < 100 nM
COc1ccc(COc2cnc3c(c2)CN(C(=O)c2cncc(OC)c2)CC3)nc1 [Example 1.28] | 29.4 nM | < 100 nM
COc1ccc(COc2cnc3c(c2)CN(C(=O)c2ccn(CCF)c(=O)c2)CC3)nc1 [Example 1.29] | 271 nM | 100 to 500 nM
COc1ccc(COc2ccc3c(c2)CNCC3)nc1 [Example 1.30, 7-[(5-Methoxypyridin-2-yl)methoxy]-1,2,3,4-tetrahydroisoquinolin-2-ium chloride] | 1000 nM | > 500 nM
COc1ccc(COc2ccc3c(c2)C(=O)N(Cc2ccc(OC)nc2)CC3)nc1 [Example 2, 7-[(5-Methoxypyridin-2-yl)methoxy]-2-[(6-methoxypyridin-3-yl)methyl]-1,2,3,4-tetrahydroisoquinolin-1-one] | 98.5 nM | < 100 nM
COc1ccc(COc2ccc3c(c2)CN(c2ncc(OC)cn2)CC3)nc1 [Example 3, 7-[(5-Methoxypyridin-2-yl)methoxy]-2-(5-methoxypyrimidin-2-yl)-1,2,3,4-tetrahydroisoquinoline] | 1.26 nM | < 100 nM
COc1ccc(COc2ccc3c(c2)CN(C(=O)N2CCN(C)CC2)CC3)nc1 [Example 4, 7-[(5-Methoxypyridin-2-yl)methoxy]-2-(4-methylpiperazine-1-carbonyl)-1,2,3,4-tetrahydroisoquinoline] | 73.2 nM | < 100 nM
COc1ccc(NC(=O)N2CCc3ccccc3C2)cn1 [Example 4.1] | 1000 nM | > 500 nM
COc1ccc(COc2ccc3c(c2)CN(C(=O)Nc2ccc(OC)nc2)CC3)nc1 [Example 4.2] | 6.92 nM | < 100 nM
COc1ccc(COc2ccc3c(c2)CN(C(=O)N2CCc4cc(OC)ncc4C2)CC3)nc1 [Example 4.3] | 3.67 nM | < 100 nM
COc1ccc(COc2ccc3c(c2)CN(C(=O)N2CC4(COC4)C2)CC3)nc1 [Example 4.4] | 1000 nM | > 500 nM
COc1ccc(COC(=O)N2CCc3ccccc3C2)cn1 [Example 5, (6-Methoxypyridin-3-yl)methyl 1,2,3,4-tetrahydroisoquinoline-2-carboxylate] | 1000 nM | > 500 nM
COc1ccc(COc2ccc3c(c2)CN(C(=O)OCc2ccc(OC)nc2)CC3)nc1 [Example 5.1] | 1.65 nM | < 100 nM
COc1ccc(COc2ccc3c(c2)CN(c2cncc(OC)c2)CC3)nc1 [Example 6.1] | 2.65 nM | < 100 nM
COc1ccc(COc2cnc3c(c2)CN(c2ncc(OC)cn2)CC3)nc1 [Example 6.2] | 1.97 nM | < 100 nM
COc1ccc(COc2cnc3c(c2)CN(c2cncc(OC)c2)CC3)nc1 [Example 6.3] | 7.86 nM | < 100 nM
COc1ccc(COc2ccc3c(c2)CN(c2ccc(OC)nc2)CC3)nc1 [Example 6] | 2.21 nM | < 100 nM
COc1ccc(COc2ccc3c(c2)CN(Cc2ccc(OC)nc2)CC3)nc1 [Example 7] | 137 nM | 100 to 500 nM
COc1ccc(COc2ccc3c(c2)CN(c2ccc(OC)cn2)CC3)nc1 [Example 8, 2-(5-Methoxypyridin-2-yl)-7-[(5-methoxypyridin-2-yl)methoxy]-1,2,3,4-tetrahydroisoquinoline] | 1.79 nM | < 100 nM
COc1ccc(COc2ccc3c(c2)CN(c2cc(OC)ccn2)CC3)nc1 [Example 8.1] | 1.7 nM | < 100 nM
COc1ccc(COc2ccc3c(c2)CN(c2cccc(OC)n2)CC3)nc1 [Example 8.2] | 2.02 nM | < 100 nM
COc1ccc(COc2ccc3c(c2)C(C)N(C(=O)c2ccc(OC)nc2)CC3)nc1 (stereo not shown) [Example 9, 7-[(5-Methoxypyridin-2-yl)methoxy]-2-(6-methoxypyridine-3-carbonyl)-1-methyl-1,2,3,4-tetrahydroisoquinoline] | 14.5 nM | < 100 nM
COc1ccc(COc2ccc3c(c2)CN(c2ccc(OC)nc2)C(=O)C3)nc1 [Example 10, 7-[(5-Methoxypyridin-2-yl)methoxy]-2-(6-methoxypyridin-3-yl)-1,2,3,4-tetrahydroisoquinolin-3-one] | 186 nM | 100 to 500 nM
